Assay results as given in patent publication US9017646B2, “Process of evaluating blood-brain barrier permeability of stroke rat by using fluorescent substance” (Institute of Nuclear Energy Research, Atomic Energy Council, priority 2012, dated 2015).

Tested on: blood-brain barrier of stroke rat
Test: Blood-brain barrier permeability of stroke rat (middle cerebral artery occlusion model) by Evans blue dye, optical image and IVIS 100 fluorescence imaging of the whole brain
Assay type: in vivo, SD (Sprague Dawley) rat
Settings: for presence of blue dye in brain tissue (optical image, FIG. 2): 30 minutes distribution, transcardial perfusion
Excerpt: FIG. 1 is a schematic view of an evaluation process of the present invention. As shown, the invention is a process of evaluating the blood-brain barrier permeability of a stroke rat by using fluorescent substance. The process of the invention uses Evans blue dye having spontaneous fluorescence properties, in combination with the use of a new non-invasive in vivo imaging system (IVIS), to obtain fluorescent signals so as to assess the change in the blood-brain barrier permeability of rodents after a cerebral artery stroke model surgery. In operation, an Evans blue dye 11 is injected into a stroke rat 1 of middle cerebral artery occlusion model. A non-invasive in vivo imaging system 12 is used to detect the fluorescence distribution of the whole brain, and obtain images combined by the fluorescence images and optical images for the whole brain tissue. Thereby, the change in the blood-brain barrier permeability of the stroke rat can be completely realized.
FIG. 2 is an optical image of the whole brain tissue after the injection of Evans blue dye according to the invention. FIG. 3 is an integrated image combined the fluorescence images with the optical images by using an IVIS 100 system according to the invention. As shown, in a preferred embedment, the invention uses a SD (Sprague Dawley) rat as the stroke animal model subject to transient bilateral common carotid artery and right middle cerebral artery ligation. After the rat is anesthetized, the surgery procedure is described roughly as follows. The skull of the rat is opened by drilling in order to find the right middle cerebral artery. A 10-0 needle is used to take the right middle cerebral artery and rotate it 90 degrees. It is ensured that the blood cannot flow smoothly under the observation by a microscope. Then, both sides of the common carotid artery are subject to ligation for 90 minutes. After the stitches have been removed, wounds are sutured to allow the rat to be recovered.
Three groups are provided in the experiment, in which a sham group is a rat whose skull is opened without the bilateral common carotid artery and right middle cerebral artery ligation so as to exclude the impact caused by drilling the skull; a control group is the blank rat without any surgery; and a surgery group is a stroke rat whose skull is opened to perform the middle cerebral artery ligation.
Evans blue dye is dissolved in saline and injected intravenously into the rat via its tail 24 hours after surgery. After distribution for 30 minutes, the rat is anesthetized for transcardial perfusion in order to wash away the dye within the blood vessels. The IVIS 100 (Caliper) system is used to detect the fluorescence distribution of the whole brain tissue. The Evans blue dye can be excited by the light of 620 nanometer (nm) wavelengths to emit the light of 680 nm wavelength which can be detected by the IVIS 100 system and further converted into images (as shown in FIG. 3).

Cc1cc(-c2ccc(/N=N/c3ccc4c(S(=O)(=O)O)cc(S(=O)(=O)O)c(N)c4c3O)c(C)c2)ccc1/N=N/c1ccc2c(S(=O)(=O)O)cc(S(=O)(=O)O)c(N)c2c1O [Evans blue dye, Evans blue]
fluorescence of whole brain tissue (IVIS 100, excitation 620 nm, emission 680 nm, FIG. 3) (control group (blank rat without any surgery)): fluorescence is not obvious in the brain tissue | presence of blue dye in brain tissue (optical image, FIG. 2) (control group (blank rat without any surgery), dye i.v. via tail): no presence of the blue dye in the brain tissue | fluorescence of whole brain tissue (IVIS 100, excitation 620 nm, emission 680 nm, FIG. 3) (sham group (skull opened without ligation)): fluorescence is not obvious in the brain tissue | presence of blue dye in brain tissue (optical image, FIG. 2) (sham group (skull opened without ligation), dye i.v. via tail 24 hours after surgery): no presence of the blue dye in the brain tissue | fluorescence of whole brain tissue (IVIS 100, excitation 620 nm, emission 680 nm, FIG. 3) (surgery group (stroke rat), 24 hours after stroke surgery): fluorescence signals are detected in the right brain | presence of blue dye in brain tissue (optical image, FIG. 2) (surgery group (stroke rat), dye i.v. via tail 24 hours after surgery): leak into the interstitial cells of the right brain
